In US20030125287A1, “Antisense oligonucleotides and methods to induce tumor cell death” (Hybridon, Inc., priority 2001, published 2003):
Entries after “also recorded” stand apart in the source; their conditions may differ. Read-outs that look alike come from different tables or passages of the source. Oligonucleotides are written 5' to 3', each unit as a sugar letter and its base; * is a phosphorothioate linkage, no mark a phosphodiester; rarer units and linkages stand in square brackets, end groups in braces. Plain capitals give the bases only. d = 2'-deoxy (DNA)

Experiments:
caspase-3 = test: Caspase-3 activity assay in MSN cells; format: cell-based, human; conditions: MSN cells, 400 nM, 48 hours; for caspase-3 activity, Relative units/mg protein +/− SD: triplicate
Protocol: MSN cells were treated with lipofectin, 400 nM survivin antisense oligonucleotide 903, 904, or mismatched oligonucleotide 1132, for a 48 hour period. Cell pellets were washed twice in cold PBS and re-suspended in ice-cold hypotonic cell lysis buffer (25 mM HEPES, pH 7.5, 5 mM MgCl2, 5 mM EDTA, 5 mM DTT, 2 mM PMSF, 10 μg/ml pepstatin A, 10 μg/ml leupeptin). Re-suspended pellets were incubated on ice for 20 min, followed by brief sonication for two seconds. Lysates were centrifuged at 14,000 rpm for 20 minutes at 4° C. The supernatant was retained and the protein concentration analyzed by the Bio-Rad protein assay described above.
Supernatants were assayed in triplicate, with and without the caspase-3 inhibitor, Ac-DEVD-CHO, using black opaque, 96 well, flat bottom plates (Greiner Laboratories, USA Scientific Inc., Orlando, Fla.). 50-100 μg of the supernatant was incubated in caspase-3 assay buffer (100 mM HEPES, pH 7.5, 10% sucrose, 0.1% CHAPS and 10 mM DTT) with either 2 μl of DMSO or 2 μl of 2.5 mM Ac-DEVD-CHO (Pharmingen, San Diego, Calif.) so that the final concentration of the inhibitor was 50 μM in a final volume of 100 μl. It was then incubated at 30° C. for 30 minutes. Subsequently, 2 μl of the caspase-3 substrate 2.5 mM Ac-DEVD-AMC (Pharmingen, San Diego, Calif.) (final concentration 50 μM)) was added to each well. Plates were incubated at 30° ° C. for 60 minutes in the dark.
Fluorescence of the reaction was measured using a SPECTRAmax GEMINI spectrofluorometer using SOFTmax® PRO software (Molecular Devices, Sunnyvale, Calif.) at an excitation wavelength of 355 nm and an emission wavelength of 460 nm with a cutoff filter of 455 nm. The data is presented as the ratio of the mean relative fluorescence units/mg protein±SD.

XIAP [1] = conditions: MSN cells; 400 nM; 48 hours (FIG. 10A)
Protocol: MSN cells were treated with lipofectin or 400 nM survivin antisense oligonucleotides 900, 901, 903, 904, 905 and 906. Total protein was isolated 48 hours after treatment, and 100 μg of protein was loaded per lane. The blot was incubated with a monoclonal antibody against XIAP (1:1000; IgG1). Visualization was by enhanced chemiluminescence (ECL). […] The experiment was performed twice.
Total protein homogenates were prepared according to a previously described procedure (Albala et al. (1995) J. Neurochem. 64:2480-2490). Protein content was measured using the Bio-Rad detection system (Bio-Rad Laboratories, Hercules, Calif.). Equal amounts of protein were analyzed by SDS-PAGE on 10% gels (Laemmli (1970) Nature 227:680-685). The resolved polypeptides were electrophoretically transferred to nitrocellulose (Towbin et al. (1979) Proc. Natl. Acad. Sci. USA 76:4350-4354).
(§1) Survivin polyclonal antibody was purchased from R & D Systems, Inc. (Minneapolis, Minn.). […] A generic β-tubulin monoclonal antibody (TUB 2.1) was purchased from SIGMA (St. Louis, Mo.). The XIAP mAb was purchased from StressGen Biotechnologies Corp. (Victoria, Canada). The poly-ADP ribosyl polymerase (PARP) mAb was purchased from PharMingen/Transduction Laboratories (San Diego, Calif.).

survivin = test: Western blot of survivin protein in antisense oligonucleotide-treated TC620 cells; format: cell-based, human; conditions: for percentage of survivin protein over β-tubulin relative to lipofectin: 48 hours (FIG. 5A)
Protocol: Subconfluent TC620 oligodendroglioma cells were transfected with lipofectin or increasing concentrations of survivin antisense oligonucleotide 904 (25 nM to 400 nM). 75 µg of total protein was loaded per lane. Blots were cut at 32.9 kD and the bottom was incubated with a survivin polyclonal antibody (1:500), while the top was incubated with a β-tubulin monoclonal antibody (1:1000).
The antisense oligonucleotides were synthesized on solid support with an automated DNA synthesizer using β-cyanoethylphosphoramidite chemistry. In order to prevent rapid degradation of the antisense oligonucleotides by cellular nucleases, oxidation was carried out with Becauge sulfurizing agent to obtain phosphorothioate backbone modified oligonucleotides. After their synthesis, the oligonucleotides were released from the solid support, deprotected, purified by reverse-phase HPLC, desalted, filtered and lyophilized. The purity and sequence integrity of oligonucleotides was ascertained by capillary gel electrophoresis and MALDI-TOF mass spectral analysis and the concentrations measured at […]. Cells were grown in 100 mm dishes and oligonucleotide treatment was performed on subconfluent cultures in the presence of Lipofectin (GIBCO) according to the manufacturer. Forty-eight hours following treatment, total protein homogenates were isolated.
Ten micrograms of the fusion protein was incubated with the survivin antibody (1:500) at 4° C. for 2 hours to overnight prior to immunoblotting. […] Blots were cut at 32.9 kD, and the bottom part of the blots were incubated with the survivin antibody overnight at 4° C. and visualized by enhanced chemiluminescence (Enhanced Chemiluminescence, Amersham, Arlington Heights, Ill.) as previously described (Sharma et al. Cell. Motil. Cytoskeleton 27:234-247).

PARP [2] = test: PARP cleavage immunoblot in MSN cells; format: cell-based, human
Protocol: To determine whether MSN cell death by survivin antisense oligonucleotides was mediated by caspase-3 activation, studies were conducted to examine whether PARP was cleaved following survivin antisense treatment. […] Since no PARP cleavage was detected, further tests were conducted to determine whether survivin antisense-treated cells have any active caspase-3.

XIAP [3] = test: Western blot of XIAP protein in TC620 cells; format: cell-based, human; conditions: 48 hours (FIG. 10B)
Protocol: TC620 oligodendroglioma cells were transfected with lipofectin or increasing concentrations of survivin antisense oligonucleotide 904 (25 to 400 nM). Total protein was isolated after 48 hours of treatment and 75 μg of total protein was loaded per lane. The experiment was performed once.

PARP [4] = conditions: TC620 cells; 100 nM to 400 nM (FIG. 5B)
Protocol: 75 μg of total protein was loaded per lane. Following gel electrophoresis and transfer to nitrocellulose membrane, the blot was incubated with a PARP monoclonal antibody (1:500) and visualized by enhanced chemiluminescence.
as §1

Substance	caspase-3 activity (caspase-3)	caspase-3 activity, Relative units/mg protein +/− SD (caspase-3)	fold change of XIAP protein over β-tubulin relative to lipofectin (XIAP [1])	effect on survivin protein levels (survivin)	percentage of survivin protein over β-tubulin relative to lipofectin (survivin; 25 nM)	percentage of survivin protein over β-tubulin relative to lipofectin (survivin; 50 nM)	percentage of survivin protein over β-tubulin relative to lipofectin (survivin; 100 nM)	percentage of survivin protein over β-tubulin relative to lipofectin (survivin; 200 nM)	decrease in survivin protein abundance relative to lipofectin-treated cells (survivin; 400 nM (FIG. 5A))	percentage of survivin protein over β-tubulin relative to lipofectin (survivin; 400 nM)	PARP cleavage, words (PARP [2])	fold change of XIAP protein over β-tubulin relative to lipofectin (XIAP [3]; 25 nM)	fold change of XIAP protein over β-tubulin relative to lipofectin (XIAP [3]; 50 nM)	fold change of XIAP protein over β-tubulin relative to lipofectin (XIAP [3]; 100 nM)	fold change of XIAP protein over β-tubulin relative to lipofectin (XIAP [3]; 200 nM)	fold change of XIAP protein over β-tubulin relative to lipofectin (XIAP [3]; 400 nM)	PARP cleavage (116 kD to 85 kD fragment), words (PARP [4])
d(GCACCTAGTCTCCCTGCACC) (DNA, all phosphorothioate, methylation of C not given here) [Oligo 1132, mismatched phosphorothioate control oligonucleotide, not complementary to survivin mRNA, reference compound]	no significant increase in caspase-3 activity	30,961 ± 1681 Relative units/mg protein	–	–	–	–	–	–	–	–	–	–	–	–	–	–	–
d(GCTTCCCAGTCACATCCTGT) (antisense dG*dC*dT*dT*dC*dC*dC*dA*dG*dT*dC*dA*dC*dA*dT*dC*dC*dT*dG*dT) [Oligo 906]	–	–	8.3 fold	–	–	–	–	–	–	–	–	–	–	–	–	–	–
d(TCTTGGCTCTTTCTCTGTCC) (antisense dT*dC*dT*dT*dG*dG*dC*dT*dC*dT*dT*dT*dC*dT*dC*dT*dG*dT*dC*dC) [Oligo 904]	no significant increase in caspase-3 activity; also recorded: did not activate caspase-3	33,532 ± 3732 Relative units/mg protein	–	marked concentration-dependent reduction in survivin protein levels	109.1%	97.4%	67.6%	45.2%	54%	45.7%	did not activate caspase-3 or cleave the caspase-3 substrate, PARP	1.3 fold	1.0 fold	0.71 fold	0.67 fold	0.66 fold	dramatic decrease of the 116 kD PARP protein; also recorded: resulted in the cleavage of the 116 kD caspase-3 substrate PARP
